How the values were obtained:
[1] = target: T1, human CB2 receptor (Homo sapiens, UniProt P34972); test: Cannabinoid CB2 receptor binding assay ([3H]-CP-55,940 displacement, SK-N-MC cell membranes); conditions: 1.5 h; test concentration of 0.2 μM; radioligand CP-55,940 0.2 nM; read-out: Cannabinoid CB2 Receptor Binding, percent inhibition
T1 construct: expressed in transfected cells; host or cells: SK-N-MC cells, stably transfected with pcDNA3 CB-2 (human); semi-purified membrane pellet
Description: (§1) Binding Assay for CB1 or CB2 Agonists or Inverse Agonists
(§2) The human CB1 and CB2 receptors were stably expressed in SK-N-MC cells transfected with pcDNA3 CB-1 (human) or pcDNA3 CB-2 (human). The cells were grown in T-180 cell culture flasks under standard cell culture conditions at 37° C. in a 5% CO2 atmosphere. The cells were harvested by trysinization and homogenized in a homogenization buffer (10 mM Tris, 0.2 mM MgCl2, 5 mM KCl, with protease inhibitors aprotinin, leupeptin, pepstatin A and bacitracin) and centrifuged (2000 g). The supernatant was then centrifuged in 2M sucrose (31,300 g) to produce a semi-purified membrane pellet. The pellet was resuspended in homogenization and stored at −80° C.
(§3) On the day of the assay, the pellet was thawed on ice and diluted in assay buffer (50 mM Tris-HCl, 5 mM MgCl2, 2.5 mM EDTA, 0.5 mg/mL fatty acid free bovine serum albumin, pH 7.5). The diluted membrane pellet was added with buffer, either a test compound or vehicle standard and the radioligand […] (0.2 nM) to the wells of a 96-well polypropylene plate. Non-specific binding was measured in wells containing W1N 55,212 (10 uM). The plate was covered and incubated for 90 minutes at 30° C. The contents were then aspirated onto a Packard Unifilter GF/C filter bottom plate prewet with 0.5% polyethyleneimine. The wells of the polypropylene plate were rinsed and aspirated seven times with a 0.9% saline-0.5% Tween 20 solution. The Unifilter plate was dried, scintillation cocktail was added to each well and the counts representing binding were quantitated in a TopCount scintillation counter.
(§4) For compounds tested, an IC50 binding value was obtained from percent inhibition studies in which various test concentrations were used. The binding value was calculated by linear regression.
(§5) For compounds without an IC50 binding value, the percent inhibition (%) was obtained at a test concentration of 0.2 μM.

[2] = target: T2, human CB1 receptor (Homo sapiens, UniProt P21554); test: Cannabinoid CB1 receptor binding assay ([3H]-CP-55,940 displacement, SK-N-MC cell membranes); conditions: for inhibition at 0.2 µM: 1.5 h, read-out: Cannabinoid CB1 Receptor Binding, percent inhibition
T2 construct: expressed in transfected cells; host or cells: SK-N-MC cells, stably transfected with pcDNA3 CB-1 (human); semi-purified membrane pellet
Description: as §1, §2, §3, §4, §5

T2 sequence (P21554 whole entry): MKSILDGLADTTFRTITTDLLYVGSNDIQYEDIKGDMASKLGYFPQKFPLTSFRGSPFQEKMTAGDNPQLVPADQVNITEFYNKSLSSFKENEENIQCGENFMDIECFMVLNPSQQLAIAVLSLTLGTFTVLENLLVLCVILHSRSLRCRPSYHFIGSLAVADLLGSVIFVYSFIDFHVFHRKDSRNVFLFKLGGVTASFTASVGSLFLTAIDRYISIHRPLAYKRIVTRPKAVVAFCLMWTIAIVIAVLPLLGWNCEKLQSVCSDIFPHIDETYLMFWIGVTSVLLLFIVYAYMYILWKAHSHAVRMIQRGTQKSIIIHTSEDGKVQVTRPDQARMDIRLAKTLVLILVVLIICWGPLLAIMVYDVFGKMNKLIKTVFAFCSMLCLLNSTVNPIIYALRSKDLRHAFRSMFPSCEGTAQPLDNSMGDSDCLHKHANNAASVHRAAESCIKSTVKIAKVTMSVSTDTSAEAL
T1 sequence (P34972 whole entry): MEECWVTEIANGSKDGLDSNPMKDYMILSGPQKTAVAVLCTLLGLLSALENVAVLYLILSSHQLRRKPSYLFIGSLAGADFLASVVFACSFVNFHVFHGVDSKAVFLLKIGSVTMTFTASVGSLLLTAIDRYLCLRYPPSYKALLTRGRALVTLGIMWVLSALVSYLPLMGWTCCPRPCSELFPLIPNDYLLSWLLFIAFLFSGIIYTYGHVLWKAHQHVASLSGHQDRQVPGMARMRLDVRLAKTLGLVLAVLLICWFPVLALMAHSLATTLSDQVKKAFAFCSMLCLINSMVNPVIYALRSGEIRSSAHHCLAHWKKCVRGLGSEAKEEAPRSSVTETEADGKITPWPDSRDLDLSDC

| Compound | inhibition at 0.2 µM [1] | inhibition at 0.2 µM [2] | IC50 [2] |
| --- | --- | --- | --- |
| Cc1ccc(-c2c(C)c(C(=O)N[C@H](C)c3ccccc3)nn2-c2ccc(Cl)cc2Cl)o1 [Cpd 55, 1-(2,4-dichloro-phenyl)-4-methyl-5-(5-methyl-furan-2-yl)-1H-pyrazole-3-carboxylic acid [(1R)-1-phenyl-ethyl]-amide] | 30% | 58% |  |
| Cc1c(C(=O)N[C@H](C)C2CCCCC2)nn(-c2ccc(Cl)cc2Cl)c1-c1ccc(Cl)s1 [Cpd 13, 5-(5-chloro-thiophen-2-yl)-1-(2,4-dichloro-phenyl)-4-methyl-1H-pyrazole-3-carboxylic acid [(1R)-1-cyclohexyl-ethyl]-amide] | 37% |  | 74 nM |
| CCc1c(C(=O)N[C@@H](C)c2ccccn2)nn(-c2ccc(Cl)cc2Cl)c1-c1ccc(Br)s1 [Cpd 41, 5-(5-bromo-thiophen-2-yl)-1-(2,4-dichloro-phenyl)-4-ethyl-1H-pyrazole-3-carboxylic acid [(1S)-1-pyridin-2-yl-ethyl]-amide] | 45% |  | 15 nM |
| Cc1c(C(=O)N[C@@H](C)c2ccccn2)nn(-c2ccc(Cl)cc2Cl)c1-c1ccc(F)s1 [Cpd 34, 1-(2,4-dichloro-phenyl)-5-(5-fluoro-thiophen-2-yl)-4-methyl-1H-pyrazole-3-carboxylic acid [(1S)-1-pyridin-2-yl-ethyl]-amide] | 34% | 61% |  |
| Cc1c(C(=O)NN2CC3CCCC3C2)nn(-c2ccc(Cl)cc2Cl)c1-c1cccs1 (stereo not drawn) [Cpd 11, 1-(2,4-dichloro-phenyl)-4-methyl-5-thiophen-2-yl-1H-pyrazole-3-carboxylic acid (hexahydro-cyclopenta[c]pyrrol-2-yl)-amide] | 0% | 53% |  |
| Cc1c(C(=O)N[C@@H](C)C2CCCCC2)nn(-c2ccc(Cl)cc2Cl)c1-c1ccc(Cl)s1 [Cpd 12, 5-(5-chloro-thiophen-2-yl)-1-(2,4-dichloro-phenyl)-4-methyl-1H-pyrazole-3-carboxylic acid [(1S)-1-cyclohexyl-ethyl]-amide] | 40% |  | 15 nM |
| Cc1ccc(-c2c(C)c(C(=O)N[C@H](C)c3ccccn3)nn2-c2ccc(Cl)cc2Cl)o1 [Cpd 56, 1-(2,4-dichloro-phenyl)-4-methyl-5-(5-methyl-furan-2-yl)-1H-pyrazole-3-carboxylic acid [(1R)-1-pyridin-2-yl-ethyl]-amide] | 26% | 41% |  |
| C[C@@H](NC(=O)c1nn(-c2ccc(Cl)cc2Cl)c(-c2cccs2)c1C#N)c1ccccn1 [Cpd 17, 4-cyano-1-(2,4-dichloro-phenyl)-5-thiophen-2-yl-1H-pyrazole-3-carboxylic acid [(1R)-1-pyridin-2-yl-ethyl]-amide] | 14% | 25% |  |
| CCc1c(C(=O)NN2CCC(O)CC2)nn(-c2ccc(Cl)cc2Cl)c1-c1ccc(Br)s1 [Cpd 51, 5-(5-bromo-thiophen-2-yl)-1-(2,4-dichloro-phenyl)-4-ethyl-1H-pyrazole-3-carboxylic acid (4-hydroxy-piperidin-1-yl)-amide] | 13% | 63% |  |
| C[C@H](NC(=O)c1nn(-c2ccc(Cl)cc2Cl)c(-c2cccs2)c1C#N)c1ccccc1 [Cpd 19, 4-cyano-1-(2,4-dichloro-phenyl)-5-thiophen-2-yl-1H-pyrazole-3-carboxylic acid [(1S)-1-phenyl-ethyl]-amide] | 24% | 45% |  |
| C[C@H](NC(=O)c1nn(-c2ccc(Cl)cc2Cl)c(-c2ccc(Cl)s2)c1C#N)c1ccccc1 [Cpd 26, 5-(5-chloro-thiophen-2-yl)-4-cyano-1-(2,4-dichloro-phenyl)-1H-pyrazole-3-carboxylic acid [(1S)-1-phenyl-ethyl]-amide] | 16% |  | 110 nM |
| Cc1c(C(=O)N[C@H](C)C2CCCCC2)nn(-c2ccc(Cl)cc2Cl)c1-c1cccs1 [Cpd 5, 1-(2,4-dichloro-phenyl)-4-methyl-5-thiophen-2-yl-1H-pyrazole-3-carboxylic acid [(1R)-1-cyclohexyl-ethyl]-amide] | 15% | 43% |  |
| Cc1c(C(=O)N[C@H](C)c2ccccc2)nn(-c2ccc(Cl)cc2Cl)c1-c1cc(Br)cs1 [Cpd 49, 5-(4-bromo-thiophen-2-yl)-1-(2,4-dichloro-phenyl)-4-methyl-1H-pyrazole-3-carboxylic acid [(1R)-1-phenyl-ethyl]-amide] | 63% | 76% |  |
| Cc1c(C(=O)N[C@H](C)c2ccccc2)nn(-c2ccc(Cl)cc2Cl)c1-c1cccs1 [Cpd 6, 1-(2,4-dichloro-phenyl)-4-methyl-5-thiophen-2-yl-1H-pyrazole-3-carboxylic acid [(1R)-1-phenyl-ethyl]-amide] | 8% | 57% |  |
| CCc1c(C(=O)N[C@@H](C)c2ccccc2)nn(-c2ccc(Cl)cc2Cl)c1-c1ccc(Br)s1 [Cpd 42, 5-(5-bromo-thiophen-2-yl)-1-(2,4-dichloro-phenyl)-4-ethyl-1H-pyrazole-3-carboxylic acid [(1S)-1-phenyl-ethyl]-amide] | 38% |  | 11 nM |
| CCc1c(C(=O)N2CCC(O)CC2)nn(-c2ccc(Cl)cc2Cl)c1-c1ccc(Br)s1 [Cpd 50, [5-(5-bromo-thiophen-2-yl)-1-(2,4-dichloro-phenyl)-4-ethyl-1H-pyrazol-3-yl]-(4-hydroxy-piperidin-1-yl)-methanone] | 17% | 28% |  |
| Cc1c(C(=O)N[C@@H](C)C2CCCCC2)nn(-c2ccc(Cl)cc2Cl)c1-c1ccc(I)s1 [Cpd 39, 1-(2,4-dichloro-phenyl)-5-(5-iodo-thiophen-2-yl)-4-methyl-1H-pyrazole-3-carboxylic acid [(1S)-1-cyclohexyl-ethyl]-amide] |  |  | 18 nM |
| Cc1c(C(=O)N[C@@H](C)C2CCCCC2)nn(-c2ccc(Cl)cc2Cl)c1-c1cccs1 [Cpd 8, 1-(2,4-dichloro-phenyl)-4-methyl-5-thiophen-2-yl-1H-pyrazole-3-carboxylic acid [(1S)-1-cyclohexyl-ethyl]-amide] | 1% | 34% |  |
| Cc1c(C(=O)NN2CCCCC2)nn(-c2ccc(Cl)cc2Cl)c1-c1ccc(F)s1 [Cpd 28, 1-(2,4-dichloro-phenyl)-5-(5-fluoro-thiophen-2-yl)-4-methyl-1H-pyrazole-3-carboxylic acid piperidin-1-ylamide] | 20% | 69% |  |
| Cc1c(C(=O)N[C@@H](C)c2ccccn2)nn(-c2ccc(Cl)cc2Cl)c1-c1ccc(Cl)s1 [Cpd 1, 5-(5-chloro-thiophen-2-yl)-1-(2,4-dichloro-phenyl)-4-methyl-1H-pyrazole-3-carboxylic acid [(1S)-1-pyridin-2-yl-ethyl]-amide] |  |  | 38 nM |
| Cc1c(C(=O)NN2CCCCC2)nn(-c2ccc(Cl)cc2Cl)c1-c1ccc(Br)s1 [Cpd 22, 5-(5-bromo-thiophen-2-yl)-1-(2,4-dichloro-phenyl)-4-methyl-1H-pyrazole-3-carboxylic acid piperidin-1-ylamide] | 42% |  | 37 nM |
| Cc1c(C(=O)N[C@@H](C)c2ccccn2)nn(-c2ccc(Cl)cc2Cl)c1-c1ccc(I)s1 [Cpd 37, 1-(2,4-dichloro-phenyl)-5-(5-iodo-thiophen-2-yl)-4-methyl-1H-pyrazole-3-carboxylic acid [(1S)-1-pyridin-2-yl-ethyl]-amide] |  |  | 31 nM |
| Cc1c(C(=O)N[C@H](C)c2ccccc2)nn(-c2ccc(Cl)cc2Cl)c1-c1ccc(I)s1 [Cpd 38, 1-(2,4-dichloro-phenyl)-5-(5-iodo-thiophen-2-yl)-4-methyl-1H-pyrazole-3-carboxylic acid [(1R)-1-phenyl-ethyl]-amide] |  |  | 23 nM |
| Cc1c(C(=O)NN2CCCCC2)nn(-c2ccc(Cl)cc2Cl)c1-c1ccc(Cl)s1 [Cpd 2, 5-(5-chloro-thiophen-2-yl)-1-(2,4-dichloro-phenyl)-4-methyl-1H-pyrazole-3-carboxylic acid piperidin-1-ylamide] |  |  | 40 nM |
| Cc1c(C(=O)N[C@@H](C)c2ccccc2)nn(-c2ccc(Cl)cc2Cl)c1-c1ccc(Cl)s1 [Cpd 3, 5-(5-chloro-thiophen-2-yl)-1-(2,4-dichloro-phenyl)-4-methyl-1H-pyrazole-3-carboxylic acid [(1S)-1-phenyl-ethyl]-amide] |  |  | 35 nM |
| Cc1c(C(=O)N[C@@H](C)c2ccccc2)nn(-c2ccc(Cl)cc2Cl)c1-c1ccc(I)s1 [Cpd 36, 1-(2,4-dichloro-phenyl)-5-(5-iodo-thiophen-2-yl)-4-methyl-1H-pyrazole-3-carboxylic acid [(1S)-1-phenyl-ethyl]-amide] |  |  | 17 nM |

From patent publication US20070117858A1, “SUBSTITUTED 5-HETEROARYL-1-PHENYL-PYRAZOLE CANNABINOID MODULATORS” (priority 2005, published 2007)
